Results published in US4485110A, “β-Lactam compounds, and use” (priority 1980, dated 1984).
Where two headings read alike, the source gives them in different places.

Assays:
Assay in all cases: Antibacterial activity, broth MIC
Format in all cases: cell-based
B. subtilis A = details: Bacillus subtilis, compound alone
Excerpt: (§1) The antibacterial activity of a number of compounds described in the foregoing Examples against a number of organisms is shown in Tables 1 and 10.

C. freundii E 8 = details: Citrobacter freundii, E8; compound alone, broth; read-out: Broth MIC
Excerpt: as §1

E. cloacae N 1 = details: Enterobacter cloacae, N1, compound alone
Excerpt: as §1

E. coli 0111 = details: Escherichia coli, compound alone
Excerpt: as §1

E. coli ESS = details: Escherichia coli, read-out: Broth MIC
Excerpt: as §1

E. coli JT 39 R^+ = details: Escherichia coli, read-out: Broth MIC
Excerpt: as §1

K. aerogenes A = details: Klebsiella aerogenes, read-out: Broth MIC
Excerpt: as §1

P. aeruginosa A = details: Pseudomonas aeruginosa, compound alone
Excerpt: as §1

P. mirabilis 977 = details: Proteus mirabilis, compound alone
Excerpt: as §1

P. morganii I 580 = details: Morganella morganii, I580, compound alone
Excerpt: as §1

P. rettgeri WM 16 = details: Providencia rettgeri, WM16, compound alone
Excerpt: as §1

P. vulgaris WO 91 = details: Proteus vulgaris, WO91, compound alone
Excerpt: as §1

S. aureus 1517 = details: Staphylococcus aureus, compound alone
Excerpt: as §1

S. aureus Oxford = details: Staphylococcus aureus, compound alone
Excerpt: as §1

S. aureus Russell = details: Staphylococcus aureus, compound alone
Excerpt: as §1

S. faecalis I = details: Enterococcus faecalis; compound alone, broth; read-out: Broth MIC
Excerpt: as §1

S. marcescens US 20 = details: Serratia marcescens, US20; compound alone, broth; read-out: Broth MIC
Excerpt: as §1

S. pneumoniae CN 33 = details: Streptococcus pneumoniae, CN33, compound alone
Excerpt: as §1

S. pyogenes CN 10 = details: Streptococcus pyogenes, CN10, compound alone
Excerpt: as §1

S. sonnei MB 11967 = details: Shigella sonnei, MB11967, compound alone
Excerpt: as §1

S. typhimurium CT 10 = details: Salmonella enterica, compound alone
Excerpt: as §1

C/C=C1/C(=O)N2C(C(=O)O)=CSC12 (racemic) [Compound 40, (5RS)-Sodium(Z)-6-Ethylidenepenem-3-carboxylate]
MIC (B. subtilis A): 31 µg/mL
MIC (C. freundii E 8): 125 µg/mL
MIC (E. cloacae N 1): 125 µg/mL
MIC (E. coli 0111): 62 µg/mL
MIC (E. coli ESS; compound alone, broth): 16 µg/mL
MIC (E. coli JT 39 R^+; compound alone, broth): 62 µg/mL
MIC (K. aerogenes A; compound alone, broth): 62 µg/mL
MIC (P. aeruginosa A): 250 µg/mL
MIC (P. mirabilis 977): 250 µg/mL
MIC (P. morganii I 580): 250 µg/mL
MIC (P. rettgeri WM 16): 125 µg/mL
MIC (P. vulgaris WO 91): 250 µg/mL
MIC (S. aureus 1517): 125 µg/mL
MIC (S. aureus Oxford): 8 µg/mL
MIC (S. aureus Russell): 16 µg/mL
MIC (S. faecalis I): > 250 µg/mL
MIC (S. marcescens US 20): 250 µg/mL
MIC (S. pneumoniae CN 33): 31 µg/mL
MIC (S. pyogenes CN 10): 8 µg/mL
MIC (S. sonnei MB 11967): 62 µg/mL
MIC (S. typhimurium CT 10): 62 µg/mL

CC=C1C(=O)N2C(C(=O)O)=C(SCCNC(C)=O)SC12 (racemic) [Compound 59, (5RS)-Sodium 2-(2-Acetamidoethylthio)-6-ethylidenepenem-3-carboxylate]
MIC (B. subtilis A): 3.1 µg/mL
MIC (C. freundii E 8): 25 µg/mL
MIC (E. cloacae N 1): 25 µg/mL
MIC (E. coli 0111): 25 µg/mL
MIC (E. coli ESS; compound alone, broth): 3.1 µg/mL
MIC (E. coli JT 39 R^+): 12.5 µg/mL
MIC (K. aerogenes A): 12.5 µg/mL
MIC (P. aeruginosa A): > 100 µg/mL
MIC (P. mirabilis 977): 25 µg/mL
MIC (P. morganii I 580): 25 µg/mL
MIC (P. rettgeri WM 16): 25 µg/mL
MIC (P. vulgaris WO 91): 25 µg/mL
MIC (S. aureus 1517): > 100 µg/mL
MIC (S. aureus Oxford): 3.1 µg/mL
MIC (S. aureus Russell): 3.1 µg/mL
MIC (S. faecalis I): 100 µg/mL
MIC (S. marcescens US 20): 25 µg/mL
MIC (S. pneumoniae CN 33): 0.2 µg/mL
MIC (S. pyogenes CN 10): ≤ 0.1 µg/mL
MIC (S. sonnei MB 11967): 25 µg/mL
MIC (S. typhimurium CT 10): 12.5 µg/mL

CCSC1=C(C(=O)O)N2C(=O)C(=C(C)C)C2S1 (racemic) [Compound 129, (5RS)-Sodium 2-Ethylthio-6-isopropylidenepenem-3-carboxylate]
MIC (B. subtilis A): 25 µg/mL
MIC (E. coli ESS): 12.5 µg/mL
MIC (S. aureus Oxford): 12.5 µg/mL
MIC (S. aureus Russell): 12.5 µg/mL
MIC (S. faecalis I): 50 µg/mL
MIC (S. pneumoniae CN 33): 1.6 µg/mL
MIC (S. pyogenes CN 10): 0.4 µg/mL

CC=C1C(=O)N2C(C(=O)O)=C(SCCN)SC12 (racemic) [Compound 101, (5RS)-Sodium 2-(2-aminoethylthio)-6-ethylidenepenem-3-carboxylate]
MIC (B. subtilis A): 12.5 µg/mL
MIC (C. freundii E 8): 100 µg/mL
MIC (E. cloacae N 1): 100 µg/mL
MIC (E. coli 0111): 100 µg/mL
MIC (E. coli ESS; compound alone, broth): 12.5 µg/mL
MIC (E. coli JT 39 R^+; compound alone, broth): 100 µg/mL
MIC (K. aerogenes A; compound alone, broth): 100 µg/mL
MIC (P. aeruginosa A): > 100 µg/mL
MIC (P. mirabilis 977): > 100 µg/mL
MIC (P. morganii I 580): > 100 µg/mL
MIC (P. rettgeri WM 16): 100 µg/mL
MIC (P. vulgaris WO 91): 100 µg/mL
MIC (S. aureus 1517): > 100 µg/mL
MIC (S. aureus Oxford): 3.1 µg/mL
MIC (S. aureus Russell): 3.1 µg/mL
MIC (S. faecalis I): > 100 µg/mL
MIC (S. marcescens US 20): > 100 µg/mL
MIC (S. pyogenes CN 10): 3.1 µg/mL
MIC (S. sonnei MB 11967): 100 µg/mL
MIC (S. typhimurium CT 10): 100 µg/mL

CCSC1=C(C(=O)O)N2C(=O)C(=Cc3ccccc3)C2S1 (stereo not drawn) [Compound 118, (5RS)-Sodium (Z)-6-Benzylidene-2-ethylthiopenem-3-carboxylate]
MIC (B. subtilis A): 12.5 µg/mL
MIC (C. freundii E 8): > 100 µg/mL
MIC (E. cloacae N 1): > 100 µg/mL
MIC (E. coli 0111): > 100 µg/mL
MIC (E. coli ESS): > 1.6 µg/mL
MIC (E. coli JT 39 R^+; compound alone, broth): > 100 µg/mL
MIC (K. aerogenes A; compound alone, broth): > 100 µg/mL
MIC (P. aeruginosa A): > 100 µg/mL
MIC (P. mirabilis 977): > 100 µg/mL
MIC (P. morganii I 580): > 100 µg/mL
MIC (P. rettgeri WM 16): > 100 µg/mL
MIC (P. vulgaris WO 91): > 100 µg/mL
MIC (S. aureus 1517): 100 µg/mL
MIC (S. aureus Oxford): 1.6 µg/mL
MIC (S. aureus Russell): 3.1 µg/mL
MIC (S. faecalis I): > 100 µg/mL
MIC (S. marcescens US 20): > 100 µg/mL
MIC (S. pneumoniae CN 33): 1.6 µg/mL
MIC (S. pyogenes CN 10): 1.6 µg/mL
MIC (S. sonnei MB 11967): > 100 µg/mL
MIC (S. typhimurium CT 10): > 100 µg/mL
